Experimental data from patent US20230391768A2, “IMIDAZOPYRIDINE DERIVATIVES AND AZA-IMIDAZOPYRIDINE DERIVATIVES AS JANUS KINASE 2 INHIBITORS AND USES THEREOF” (Dana-Farber Cancer Institute, Inc., priority 2018, published 2023).

Key:
Test in all cases: KINOMEscan
Format in all cases: binding
Conditions in all cases: read-out: percent of control
[1] = molecular target: ABL1(F317I)-nonphosphorylated (Homo sapiens (Human), UniProt P00519, F317I)
Method: (§1) In vitro profiling of Compound I-2 (1 μM) was performed using the DiscoveRx KINOMEscan® platform.

ABL1-phosphorylated = ABL1-phosphorylated (Homo sapiens (Human), UniProt P00519)
Method: as §1

AKT3 = AKT3 (Homo sapiens (Human), UniProt Q9Y243)
Chain of AKT3 (Q9Y243 whole entry): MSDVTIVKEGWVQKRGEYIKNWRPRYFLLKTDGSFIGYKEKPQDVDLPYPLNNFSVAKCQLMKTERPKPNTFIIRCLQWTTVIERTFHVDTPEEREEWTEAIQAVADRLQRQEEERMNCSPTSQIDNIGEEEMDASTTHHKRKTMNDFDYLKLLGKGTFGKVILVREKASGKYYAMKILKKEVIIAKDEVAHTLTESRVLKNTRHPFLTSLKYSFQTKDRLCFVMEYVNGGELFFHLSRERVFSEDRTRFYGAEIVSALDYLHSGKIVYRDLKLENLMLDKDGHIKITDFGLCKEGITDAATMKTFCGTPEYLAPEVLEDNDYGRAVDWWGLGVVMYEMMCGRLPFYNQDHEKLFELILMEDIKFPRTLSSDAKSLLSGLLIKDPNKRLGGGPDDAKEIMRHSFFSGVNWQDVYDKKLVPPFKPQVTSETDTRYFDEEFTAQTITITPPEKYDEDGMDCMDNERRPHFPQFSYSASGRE
Method: as §1

ASK2 = ASK2 (Homo sapiens (Human), UniProt O95382)
Method: as §1

BMPR1A = BMPR1A (Homo sapiens (Human), UniProt P36894)
Method: as §1

BMPR1B = BMPR1B (Homo sapiens (Human), UniProt O00238)
Method: as §1

CDK11 = CDK11 (Homo sapiens (Human), UniProt Q9BWU1)
Chain of CDK11 (Q9BWU1 whole entry): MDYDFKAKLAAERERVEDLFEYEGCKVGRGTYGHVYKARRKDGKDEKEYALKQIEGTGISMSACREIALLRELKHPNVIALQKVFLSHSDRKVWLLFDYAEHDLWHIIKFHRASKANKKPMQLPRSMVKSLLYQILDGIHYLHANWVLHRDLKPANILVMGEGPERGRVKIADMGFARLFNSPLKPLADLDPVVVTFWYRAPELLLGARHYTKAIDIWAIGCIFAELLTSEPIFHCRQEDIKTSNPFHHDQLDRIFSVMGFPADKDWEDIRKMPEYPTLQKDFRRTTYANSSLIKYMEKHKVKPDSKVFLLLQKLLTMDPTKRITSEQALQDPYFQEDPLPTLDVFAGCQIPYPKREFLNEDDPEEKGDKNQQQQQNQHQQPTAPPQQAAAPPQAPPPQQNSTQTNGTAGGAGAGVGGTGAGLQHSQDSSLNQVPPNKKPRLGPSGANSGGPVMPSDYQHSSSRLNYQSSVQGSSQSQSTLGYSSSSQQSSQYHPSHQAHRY
Method: as §1

CDKL2 = CDKL2 (Homo sapiens (Human), UniProt Q92772)
Method: as §1

CSNK2A1 = CSNK2A1 (Homo sapiens (Human), UniProt P68400)
Method: as §1

DLK = DLK (Homo sapiens (Human), UniProt Q12852)
Chain of DLK (Q12852 whole entry): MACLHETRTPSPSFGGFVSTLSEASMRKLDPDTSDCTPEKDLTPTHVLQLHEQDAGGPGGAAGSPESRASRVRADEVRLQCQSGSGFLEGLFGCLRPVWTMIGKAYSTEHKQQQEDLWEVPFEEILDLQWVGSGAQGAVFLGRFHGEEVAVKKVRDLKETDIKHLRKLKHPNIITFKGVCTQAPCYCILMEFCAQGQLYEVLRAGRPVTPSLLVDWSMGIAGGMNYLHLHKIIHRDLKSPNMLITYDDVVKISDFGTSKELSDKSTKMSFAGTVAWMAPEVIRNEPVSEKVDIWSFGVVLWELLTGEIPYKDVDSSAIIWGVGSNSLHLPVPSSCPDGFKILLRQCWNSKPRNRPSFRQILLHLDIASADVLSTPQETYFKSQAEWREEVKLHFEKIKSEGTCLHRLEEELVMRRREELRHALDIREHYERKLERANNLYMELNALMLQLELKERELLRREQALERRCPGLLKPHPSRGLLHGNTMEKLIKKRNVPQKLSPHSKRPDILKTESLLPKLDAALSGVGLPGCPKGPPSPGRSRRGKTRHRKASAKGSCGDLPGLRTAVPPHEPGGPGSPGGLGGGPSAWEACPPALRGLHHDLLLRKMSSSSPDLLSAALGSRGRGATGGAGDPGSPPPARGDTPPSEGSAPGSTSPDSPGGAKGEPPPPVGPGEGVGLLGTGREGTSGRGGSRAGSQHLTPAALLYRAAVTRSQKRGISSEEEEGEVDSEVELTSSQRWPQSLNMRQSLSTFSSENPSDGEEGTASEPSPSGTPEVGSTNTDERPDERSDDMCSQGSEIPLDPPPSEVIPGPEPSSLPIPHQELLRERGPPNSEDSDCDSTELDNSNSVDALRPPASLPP
Method: as §1

DYRKIA = DYRKIA (Homo sapiens (Human), UniProt Q13627)
Method: as §1

EPHA2 = EPHA2 (Homo sapiens (Human), UniProt P29317)
Method: as §1

FLT1 = FLT1 (Homo sapiens (Human), UniProt P17948)
Method: as §1

HIPK1 = HIPK1 (Homo sapiens (Human), UniProt Q86Z02)
Chain of HIPK1 (Q86Z02 whole entry): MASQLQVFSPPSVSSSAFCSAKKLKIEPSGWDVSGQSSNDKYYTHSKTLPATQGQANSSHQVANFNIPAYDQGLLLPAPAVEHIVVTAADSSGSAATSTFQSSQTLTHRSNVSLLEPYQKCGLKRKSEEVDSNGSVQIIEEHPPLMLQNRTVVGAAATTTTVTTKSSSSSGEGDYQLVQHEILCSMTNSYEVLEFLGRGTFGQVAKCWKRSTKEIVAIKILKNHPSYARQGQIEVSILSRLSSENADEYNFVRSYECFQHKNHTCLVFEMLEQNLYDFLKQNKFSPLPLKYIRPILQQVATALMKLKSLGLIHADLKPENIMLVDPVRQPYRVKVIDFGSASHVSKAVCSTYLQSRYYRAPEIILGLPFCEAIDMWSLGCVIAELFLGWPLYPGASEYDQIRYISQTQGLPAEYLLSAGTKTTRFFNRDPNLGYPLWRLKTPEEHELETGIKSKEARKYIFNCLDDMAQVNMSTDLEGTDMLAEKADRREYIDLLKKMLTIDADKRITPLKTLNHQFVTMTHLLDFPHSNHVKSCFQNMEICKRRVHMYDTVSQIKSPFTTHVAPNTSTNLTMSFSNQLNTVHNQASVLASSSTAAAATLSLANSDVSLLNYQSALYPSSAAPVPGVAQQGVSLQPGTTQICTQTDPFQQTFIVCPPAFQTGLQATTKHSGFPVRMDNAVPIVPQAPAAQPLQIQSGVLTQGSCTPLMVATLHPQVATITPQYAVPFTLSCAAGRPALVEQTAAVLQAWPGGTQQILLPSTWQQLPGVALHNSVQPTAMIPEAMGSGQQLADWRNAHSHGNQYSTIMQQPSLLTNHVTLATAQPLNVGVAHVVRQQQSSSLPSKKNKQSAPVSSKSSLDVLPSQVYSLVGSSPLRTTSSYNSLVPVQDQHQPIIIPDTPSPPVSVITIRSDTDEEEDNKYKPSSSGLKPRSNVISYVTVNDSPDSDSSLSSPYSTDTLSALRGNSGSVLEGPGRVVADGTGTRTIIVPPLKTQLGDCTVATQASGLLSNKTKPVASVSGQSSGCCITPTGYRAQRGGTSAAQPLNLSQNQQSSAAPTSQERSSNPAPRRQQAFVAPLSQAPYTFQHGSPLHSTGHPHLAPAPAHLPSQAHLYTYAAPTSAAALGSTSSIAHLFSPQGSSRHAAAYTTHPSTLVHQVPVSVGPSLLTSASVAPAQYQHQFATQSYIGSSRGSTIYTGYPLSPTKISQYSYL
Method: as §1

KIT(L576P) = KIT(L576P) (Homo sapiens (Human), UniProt P10721, L576P)
Chain of KIT(L576P) (P10721 26-976 L576P): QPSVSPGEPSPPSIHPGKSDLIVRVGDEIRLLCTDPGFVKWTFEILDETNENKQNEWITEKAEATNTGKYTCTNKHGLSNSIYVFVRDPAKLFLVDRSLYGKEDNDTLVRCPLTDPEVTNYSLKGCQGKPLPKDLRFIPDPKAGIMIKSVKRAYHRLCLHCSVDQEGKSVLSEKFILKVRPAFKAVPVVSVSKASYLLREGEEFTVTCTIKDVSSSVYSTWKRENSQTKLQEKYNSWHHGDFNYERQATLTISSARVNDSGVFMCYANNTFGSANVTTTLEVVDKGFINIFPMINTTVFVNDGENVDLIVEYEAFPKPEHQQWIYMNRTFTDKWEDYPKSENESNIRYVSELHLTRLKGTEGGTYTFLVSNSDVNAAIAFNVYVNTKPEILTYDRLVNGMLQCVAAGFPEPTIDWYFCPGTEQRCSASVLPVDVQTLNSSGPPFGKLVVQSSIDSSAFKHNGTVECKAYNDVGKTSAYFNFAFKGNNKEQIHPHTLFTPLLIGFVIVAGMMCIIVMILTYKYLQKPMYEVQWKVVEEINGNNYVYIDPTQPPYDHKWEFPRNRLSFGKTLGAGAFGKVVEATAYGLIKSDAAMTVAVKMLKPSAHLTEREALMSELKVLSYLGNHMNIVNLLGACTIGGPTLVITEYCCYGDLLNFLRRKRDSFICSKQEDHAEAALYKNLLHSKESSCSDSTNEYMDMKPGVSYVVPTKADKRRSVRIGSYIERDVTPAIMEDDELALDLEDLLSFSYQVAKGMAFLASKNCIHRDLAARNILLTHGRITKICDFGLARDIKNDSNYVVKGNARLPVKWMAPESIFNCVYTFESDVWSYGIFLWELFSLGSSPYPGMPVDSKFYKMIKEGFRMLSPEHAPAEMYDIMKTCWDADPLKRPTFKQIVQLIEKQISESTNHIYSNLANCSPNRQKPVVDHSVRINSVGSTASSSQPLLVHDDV
Method: as §1

LIMK1 = LIMK1 (Homo sapiens (Human), UniProt P53667)
Method: as §1

LRRK2 = LRRK2 (Homo sapiens (Human), UniProt Q5S007)
Method: as §1

MEK3 = MEK3 (Homo sapiens (Human), UniProt P46734)
Method: as §1

MLK2 = MLK2 (Homo sapiens (Human), UniProt Q02779)
Method: as §1

MRCKA = MRCKA (Homo sapiens (Human), UniProt Q5VT25)
Method: as §1

NEK3 = NEK3 (Homo sapiens (Human), UniProt P51956)
Method: as §1

PAK4 = PAK4 (Homo sapiens (Human), UniProt O96013)
Method: as §1

PAK7 = PAK7 (Homo sapiens (Human), UniProt Q9P286)
Chain of PAK7 (Q9P286 whole entry): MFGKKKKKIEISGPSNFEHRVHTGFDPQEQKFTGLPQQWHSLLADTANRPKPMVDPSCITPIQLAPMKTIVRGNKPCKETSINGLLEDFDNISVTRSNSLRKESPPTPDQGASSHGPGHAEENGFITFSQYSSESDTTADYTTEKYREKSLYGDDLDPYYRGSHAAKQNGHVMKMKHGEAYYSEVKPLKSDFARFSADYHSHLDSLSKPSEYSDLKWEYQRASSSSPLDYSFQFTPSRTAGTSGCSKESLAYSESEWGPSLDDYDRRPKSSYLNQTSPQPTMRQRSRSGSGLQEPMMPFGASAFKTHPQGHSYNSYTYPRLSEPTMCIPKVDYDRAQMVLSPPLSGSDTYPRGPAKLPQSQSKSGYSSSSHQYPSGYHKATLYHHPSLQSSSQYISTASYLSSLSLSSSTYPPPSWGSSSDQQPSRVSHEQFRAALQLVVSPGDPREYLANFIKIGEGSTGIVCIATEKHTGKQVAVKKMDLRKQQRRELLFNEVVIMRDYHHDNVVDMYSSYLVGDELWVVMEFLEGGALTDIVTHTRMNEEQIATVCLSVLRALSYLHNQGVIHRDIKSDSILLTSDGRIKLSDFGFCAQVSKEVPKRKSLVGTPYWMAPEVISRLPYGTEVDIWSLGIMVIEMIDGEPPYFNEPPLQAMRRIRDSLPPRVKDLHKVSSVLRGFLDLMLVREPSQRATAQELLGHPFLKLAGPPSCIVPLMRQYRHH
Method: as §1

PIP5K1C = PIP5K1C (Homo sapiens (Human), UniProt O60331)
Method: as §1

PKAC-alpha = PKAC-alpha (Homo sapiens (Human), UniProt P17612)
Method: as §1

PLK3 = PLK3 (Homo sapiens (Human), UniProt Q9H4B4)
Method: as §1

PLK4 = PLK4 (Homo sapiens (Human), UniProt O00444)
Method: as §1

PRKCD = PRKCD (Homo sapiens (Human), UniProt Q05655)
Method: as §1

PRP4 = PRP4 (Homo sapiens (Human), UniProt Q13523)
Method: as §1

RET = RET (Homo sapiens (Human), UniProt P07949)
Method: as §1

RIPK5 = RIPK5 (Homo sapiens (Human), UniProt Q6XUX3)
Method: as §1

[2] = molecular target: RPS6KA5 (Kin.Dom.1-N-terminal) (Homo sapiens (Human), UniProt O75582)
Method: as §1

[3] = molecular target: RSK1 (Kin.Dom.2-C-terminal) (Homo sapiens (Human), UniProt Q15418)
Method: as §1

[4] = molecular target: RSK2 (Kin.Dom.1-N-terminal) (Homo sapiens (Human), UniProt P51812)
Chain of RSK2 (Kin.Dom.1-N-terminal) (P51812 68-327): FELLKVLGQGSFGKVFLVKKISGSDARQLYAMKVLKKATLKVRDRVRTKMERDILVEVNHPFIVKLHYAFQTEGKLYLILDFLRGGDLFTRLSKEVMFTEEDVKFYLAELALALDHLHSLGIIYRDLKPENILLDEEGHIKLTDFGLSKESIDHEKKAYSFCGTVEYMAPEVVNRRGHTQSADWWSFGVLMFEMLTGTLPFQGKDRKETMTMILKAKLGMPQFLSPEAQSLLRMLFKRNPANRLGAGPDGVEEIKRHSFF
Method: as §1

SGK = SGK (Homo sapiens (Human), UniProt O00141)
Method: as §1

TNK2 = TNK2 (Homo sapiens (Human), UniProt Q07912)
Method: as §1

TYR = TYR (Homo sapiens (Human), UniProt Q06418)
Method: as §1

ULK = ULK (Homo sapiens (Human), UniProt O75385)
Method: as §1

ULK2 = ULK2 (Homo sapiens (Human), UniProt Q8IYT8)
Method: as §1

Structure (SMILES) | remaining binding at 1 µM [1] | remaining binding at 1 µM (ABL1-phosphorylated) | remaining binding at 1 µM (AKT3) | remaining binding at 1 µM (ASK2) | remaining binding at 1 µM (BMPR1A) | remaining binding at 1 µM (BMPR1B) | remaining binding at 1 µM (CDK11) | remaining binding at 1 µM (CDKL2) | remaining binding at 1 µM (CSNK2A1) | remaining binding at 1 µM (DLK) | remaining binding at 1 µM (DYRKIA) | remaining binding at 1 µM (EPHA2) | remaining binding at 1 µM (FLT1) | remaining binding at 1 µM (HIPK1) | remaining binding at 1 µM (KIT(L576P)) | remaining binding at 1 µM (LIMK1) | remaining binding at 1 µM (LRRK2) | remaining binding at 1 µM (MEK3) | remaining binding at 1 µM (MLK2) | remaining binding at 1 µM (MRCKA) | other results
CCN1CCN(Cc2cc(NC(=O)c3ccc(C)c(-c4ccc5nc(NC(=O)C6CC6)cn5c4)c3)cc(C(F)(F)F)c2)CC1 [Compound I-6, 3-(2-(cyclopropanecarboxamido)imidazo[1,2-a]pyridin-6-yl)-N-(3-((4-ethylpiperazin-1-yl)methyl)-5-(trifluoromethyl)phenyl)-4-methylbenzamide] | 0% | 0.1% | 94% | 64% | 92% | 86% | 2.7% | 0.8% | 100% | 26% | 100% | 0.15% | 3.2% | 96% | 1.8% | 96% | 87% | 87% | 62% | 100% | remaining binding at 1 µM (NEK3): 96%; remaining binding at 1 µM (PAK4): 96%; remaining binding at 1 µM (PAK7): 98%; remaining binding at 1 µM (PIP5K1C): 94%; remaining binding at 1 µM (PKAC-alpha): 97%; remaining binding at 1 µM (PLK3): 100%; remaining binding at 1 µM (PLK4): 95%; remaining binding at 1 µM (PRKCD): 48%; remaining binding at 1 µM (PRP4): 100%; remaining binding at 1 µM (RET): 0%; remaining binding at 1 µM (RIPK5): 100%; remaining binding at 1 µM [2]: 66%; remaining binding at 1 µM [3]: 96%; remaining binding at 1 µM [4]: 78%; remaining binding at 1 µM (SGK): 92%; remaining binding at 1 µM (TNK2): 99%; remaining binding at 1 µM (TYR): 47%; remaining binding at 1 µM (ULK): 100%; remaining binding at 1 µM (ULK2): 100%
CCN1CCN(Cc2cc(NC(=O)c3ccc(C)c(-c4ccc5nc(NC(=O)C6CC6)cn5n4)c3)cc(C(F)(F)F)c2)CC1 [Compound I-2, 3-(2-(cyclopropanecarboxamido)imidazo[1,2-b]pyridazin-6-yl)-N-(3-((4-ethylpiperazin-1-yl)methyl)-5-(trifluoromethyl)phenyl)-4-methylbenzamide] | 0% | 0.1% | 8% | 99% | 99% | 84% | 0.6% | 0% | 98% | 15% | 92% | 1.8% | 3.2% | 62% | 0% | 87% | 100% | 71% | 72% | 91% | remaining binding at 1 µM (NEK3): 100%; remaining binding at 1 µM (PAK4): 96%; remaining binding at 1 µM (PAK7): 73%; remaining binding at 1 µM (PIP5K1C): 85%; remaining binding at 1 µM (PKAC-alpha): 75%; remaining binding at 1 µM (PLK3): 100%; remaining binding at 1 µM (PLK4): 81%; remaining binding at 1 µM (PRKCD): 40%; remaining binding at 1 µM (PRP4): 87%; remaining binding at 1 µM (RET): 0%; remaining binding at 1 µM (RIPK5): 89%; remaining binding at 1 µM [2]: 73%; remaining binding at 1 µM [3]: 100%; remaining binding at 1 µM [4]: 88%; remaining binding at 1 µM (SGK): 83%; remaining binding at 1 µM (TNK2): 100%; remaining binding at 1 µM (TYR): 26%; remaining binding at 1 µM (ULK): 89%; remaining binding at 1 µM (ULK2): 100%
